The test system of test [1] is IL-4 stimulated expression of CD23 in human Ramos B cells (JAK-1 and JAK-3). Nature of the test: Assay for Ramos B-Cell Line Stimulated with IL-4 (CD23 upregulation, FACS). Format: cell-based. The conditions noted are these: Homo sapiens, Ramos, Ramos B cells stimulated with IL-4, CD23 expression by FACS; read-out: IC50, Example 41. The procedure, abridged: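 Human Ramos B cells (5×10^4 per point, RPMI 5% serum) pre-incubated 1 h at 37 °C with compound or DMSO, then stimulated with IL-4 at 50 units/mL final for 20-24 h. CD23 upregulation measured by anti-CD23-PE staining and flow cytometry; IC50 derived.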
A general note: Flow cytometry measures light scatter and fluorescence of single cells or particles in a stream.

Test [2] concerns Primary human T-cells. The test can be described thus: Primary Human T-Cell Proliferation Assay Stimulated with IL-2 (CellTiter-Glo). The test is classed as cell-based. The conditions noted are these: Homo sapiens, T-cell, primary human T-cells stimulated with IL-2, proliferation; read-out: IC50, Example 42. The procedure, abridged:
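Peripheral blood T-cells pre-activated with anti-CD3/anti-CD28 and IL-2 were washed free of IL-2, then cultured with compound plus IL-2 for 72 hours at 37° C, duplicate wells. Viability read as ATP by CellTiter-Glo luminescence; IC50 reported.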
In general terms: Cellular ATP, detected with luciferase, serves as a proxy for viable cell number.

A word on the IC50: it is the concentration needed to halve the response being measured. `COc1ccc(Nc2nc(Nc3ccc(N4CCN(C)CC4)c(S(N)(=O)=O)c3)ncc2F)cc1Cl` [VI-116, N2-[3-Aminosulfonyl-4-(4-methylpiperazine-1-yl)phenyl]-N4-(3-chloro-4-methoxyphenyl)-5-fluoro-2,4-pyrimidinediamine]: the IC50 in test [1] is 31.1 nM; in test [2], 174 nM.
As to `COc1ccc(Nc2nc(Nc3cccc(S(N)(=O)=O)c3)ncc2F)cn1` [VII-6, N2-(3-Aminosulfonylphenyl)-5-fluoro-N4-(2-methoxypyrid-5-yl)-2,4-pyrimidinediamine], the IC50 in test [1] is 102 nM; in test [2], 2000 nM.
Turning to `COc1ccc(Nc2nc(Nc3ccc(C)c(S(N)(=O)=O)c3)ncc2F)nc1N` [VII-9, N2-(3-Aminosulfonyl-4-methylphenyl)-N4-[2-amino-3-methoxypyrid-6-yl]-5-fluoro-2,4-pyrimidinediamine], the IC50 in test [1] was found to be 246 nM; in test [2] it was 2720 nM.
As to `CN1C(=O)C(C)(C)S(=O)(=O)c2ccc(Nc3nc(Nc4ccc(S(N)(=O)=O)cc4)ncc3F)cc21` [VII-12, N2-(4-Aminosulphonylphenyl)-5-fluoro-N4-(2,2,4-trimethyl-1,1,3-trioxo-benzo[1,4]thiazin-6-yl)-2,4-pyrimidinediamine], the results for the IC50 in test [1] and in test [2] were 602 nM and 6690 nM, respectively.
On the same counts, the results for `Cc1ccc(Nc2ncc(C)c(Nc3ccc4c(c3)NC(=O)CO4)n2)cc1S(N)(=O)=O` [VII-30, N2-(3-Aminosulphonyl-4-methylphenyl)-5-methyl-N4-(3-oxo-benz[1,4]oxazin-6-yl)-2,4-pyrimidinediamine] are 35.8 nM and 26.8 nM.
Consider `Cc1cnc(Nc2ccc(S(N)(=O)=O)cc2)nc1Nc1ccc2c(c1)NC(=O)CO2` [VII-31, N2-(4-Aminosulphonylphenyl)-5-methyl-N4-(3-oxo-benz[1,4]oxazin-6-yl)-2,4-pyrimidinediamine], for which the figures for the IC50 in test [1] and in test [2] were 125 nM and 174 nM, respectively.
On the same counts, the results for `Cc1cnc(Nc2cccc(S(N)(=O)=O)c2)nc1Nc1ccc2c(c1)NC(=O)CO2` [VII-32, N2-(3-Aminosulphonylphenyl)-5-methyl-N4-(3-oxo-benz[1,4]oxazin-6-yl)-2,4-pyrimidinediamine] are 107 nM and 32.1 nM.
On the same counts, the results for `Cc1cnc(Nc2cccc(S(N)(=O)=O)c2)nc1Nc1ccc2c(c1)N(C)C(=O)CS2` [VII-35, N2-(3-Aminosulphonylphenyl)-5-methyl-N4-(4-methyl-3-oxo-benzo[1,4]thiazin-6-yl)-2,4-pyrimidinediamine] are 44.8 nM and 46.1 nM.
For `Cc1ccc(Nc2ncc(F)c(Nc3ccc4c(c3)NC(=O)CS4)n2)cc1S(N)(=O)=O` [VII-44, N2-(3-Aminosulphonyl-4-methyl-phenyl)-5-fluoro-N4-(3-oxo-4H-benzo[1,4]thiazin-6-yl)-2,4-pyrimidinediamine], the IC50 in test [1] was 33 nM; in test [2], 546 nM.
With `CN1C(=O)CSc2ccc(Nc3nc(Nc4ccc(S(N)(=O)=O)cc4)ncc3F)cc21` [VII-48, N2-(4-Aminosulfonylphenyl)-5-fluoro-N4-(4-methyl-3-oxo-benz[1,4]thiazin-6-yl)-2,4-pyrimidinediamine], the IC50 in test [1] was determined as 30.8 nM; in test [2] it was 336 nM.
For `CN1C(=O)CSc2ccc(Nc3nc(Nc4cccc(S(N)(=O)=O)c4)ncc3F)cc21` [VII-49, N2-(3-Aminosulfonylphenyl)-5-fluoro-N4-(4-methyl-3-oxo-benz[1,4]thiazin-6-yl)-2,4-pyrimidinediamine], the IC50 in test [1] came to 37.8 nM; in test [2] it was 54.9 nM.
`Cc1ccc(Nc2ncc(F)c(Nc3ccc4oc(C#N)cc4c3)n2)cc1S(N)(=O)=O` [VII-53, N2-(3-Aminosulfonyl-4-methylphenyl)-N4-(2-cyanobenzofuran-5-yl)-5-fluoro-2,4-pyrimidinediamine]: the results for the IC50 in test [1] and in test [2] were 168 nM and 484 nM, respectively.
Turning to `NC(=O)c1cc2cc(Nc3nc(Nc4cccc(S(N)(=O)=O)c4)ncc3F)ccc2o1` [VII-54, N2-(3-Aminosulfonylphenyl)-N4-(2-aminocarbonylbenzofurane-5-yl)-5-fluoro-2,4-pyrimidinediamine], the IC50 in test [1] was 295 nM; in test [2], 596 nM.
`Cc1ccc(Nc2ncc(F)c(Nc3ccc4sccc4c3)n2)cc1S(N)(=O)=O` [VII-57, N2-(3-Aminosulfonyl-4-methylphenyl)-N4-(benzothiophen-5-yl)-5-fluoro-2,4-pyrimidinediamine]: the IC50 in test [1] came out at 107 nM; in test [2], 818 nM.
On the same counts, the results for `NS(=O)(=O)c1cccc(Nc2ncc(F)c(Nc3ccc4sccc4c3)n2)c1` [VII-58, N2-(3-Aminosulfonylphenyl)-N4-(benzothiophen-5-yl)-5-fluoro-2,4-pyrimidinediamine] are 136 nM and 265 nM.
For `Cc1ccc(Nc2ncc(F)c(Nc3ccc4ncccc4c3)n2)cc1S(N)(=O)=O` [VII-69, N2-(3-Aminosulfonyl-4-methylphenyl)-5-fluoro-N4-(quinolin-6-yl)-2,4-pyrimidinediamine] the same measures were 76.7 nM and 696 nM.
For the compound `NS(=O)(=O)c1cccc(Nc2ncc(F)c(Nc3ccc4ncccc4c3)n2)c1` [VII-70, N2-(3-Aminosulfonylphenyl)-5-fluoro-N4-(quinolin-6-yl)-2,4-pyrimidinediamine], the half-inhibitory concentration (IC50) was 65.4 nM in test [1] and 375 nM in test [2].
Regarding `Cc1ccc2cc(Nc3nc(Nc4ccc(C)c(S(N)(=O)=O)c4)ncc3F)ccc2n1` [VII-71, N2-(3-Aminosulfonyl-4-methylphenyl)-5-fluoro-N4-(2-methylquinolin-6-yl)-2,4-pyrimidinediamine], the IC50 in test [1] worked out at 149 nM; in test [2] it was 569 nM.
Consider `Cc1ccc2cc(Nc3nc(Nc4cccc(S(N)(=O)=O)c4)ncc3F)ccc2n1` [VII-72, N2-(3-Aminosulfonylphenyl)-5-fluoro-N4-(2-methylquinolin-6-yl)-2,4-pyrimidinediamine], for which the IC50 in test [1] was found to be 84.8 nM; in test [2] it was 415 nM.
As for `Cc1ccc(Nc2ncc(F)c(Nc3cccc4cccnc34)n2)cc1S(N)(=O)=O` [VII-77, N2-(3-Aminosulfonyl-4-methylphenyl)-5-fluoro-N4-(quinolin-8-yl)-2,4-pyrimidinediamine], the IC50 was 124 nM in test [1] and 1780 nM in test [2].

Source of the values: US11827628B2, “Compositions and methods for inhibition of the JAK pathway” (Rigel Pharmaceuticals, Inc., priority 2005, dated 2023).
